Counter-ions that a name gives are not always drawn.
How the values were obtained:
Assay type in all cases: physicochemical
Water-solubility test = conditions: 25° C. (room temperature), expressed as acid
[1] = Dynamic Vapour Sorption (DVS) profiles; conditions: 25° C.; for Hygroscopicity according to the DVS pattern: sorption 0 to 95% RH and desorption; for Hysteresis in the DVS pattern: sorption/desorption isotherms; for Mass increase at 80% relative humidity: 80% RH; for Mass increase at 90% relative humidity: 90% RH
Procedure: Dynamic Vapour Sorption (DVS) profiles were obtained using an Igasorp Hiden Isochema instrument (serial number IGA-SA-066). After an initial stabilization period, at least two isotherms (at 25° C.) were obtained for each sample: a moisture sorption from 0 to 95% relative humidity and moisture desorption from 95% relative humidity to dryness. Both isotherms were performed in 10% humidity steps, with a minimum time of 10 minutes and a maximum time of 30 minutes for each step.

[2] = Differential scanning calorimetry (DSC) thermograms; conditions: heated 30 to 350° C. at 10° C./min
Procedure: The differential scanning calorimetry (DSC) thermograms analyses were obtained using a DSC-821 Mettler-Toledo instrument, serial number 5117423874. Samples were weighed into an aluminium pan, an aluminium lid placed on top of the sample and compressed with a brass rod. Samples were equilibrated at 30° C. and heated at 10° C./min to 350° C. The instrument was calibrated using indium and zinc standards.

Water Solubility @ 25° C. (mg/mL as acid) (Water-solubility test) | Hygroscopicity according to the DVS pattern [1] | Mass increase at 80% relative humidity [1] | Mass increase at 90% relative humidity [1] | SMILES | Hysteresis in the DVS pattern [1] | Stability (no conversion into other polymorphs, no decomposition) from DSC thermogram [2]
0.002 mg/mL |  |  |  | Cc1c(-c2ccccc2)cc(F)c(Nc2ncccc2C(=O)O)c1F [C3, 2-[(3,5-difluoro-2-methyl-1,1′-biphenyl-4-yl)amino]nicotinic acid, reference compound] |  | 
0.008 mg/mL |  |  |  | CCOc1cccc(-c2ccc(Nc3ncccc3C(=O)O)c(OC(F)(F)F)c2)c1 [C2, 2-{[3′-ethoxy-3-(trifluoromethoxy)-1,1′-biphenyl-4-yl]amino}nicotinic acid, reference compound] |  | 

Second part, the compound before the results:

SMILES | Water Solubility @ 25° C. (mg/mL as acid) (Water-solubility test) | Hygroscopicity according to the DVS pattern [1] | Mass increase at 80% relative humidity [1] | Mass increase at 90% relative humidity [1] | Hysteresis in the DVS pattern [1] | Stability (no conversion into other polymorphs, no decomposition) from DSC thermogram [2]
COc1cccc(-c2cc(F)c(Nc3ncccc3C(=O)O)c(F)c2)c1 [Ex. 2, 2-[(3,5-difluoro-3′-methoxy-1,1′-biphenyl-4-yl)amino]nicotinic acid, tromethamine salt] | 0.870 mg/mL | not hygroscopic |  |  | no hysteresis | high stability
Cc1c(-c2ccccc2)cc(F)c(Nc2ncccc2C(=O)O)c1F [Ex. 4, 2-(3,5-difluoro-2-methylbiphenyl-4-ylamino)nicotinic acid, meglumine salt] | 0.210 mg/mL | not hygroscopic |  |  |  | 
Cc1c(-c2ccccc2)cc(F)c(Nc2ncccc2C(=O)O)c1F [Ex. 5, 2-(3,5-difluoro-2-methylbiphenyl-4-ylamino)nicotinic acid, tromethamine salt] | 0.490 mg/mL | a bit hygroscopic | 5.7% | 14.9% | without hysteresis | 
CCOc1cccc(-c2ccc(Nc3ncccc3C(=O)O)c(OC(F)(F)F)c2)c1 [Ex. 3, 2-(3′-ethoxy-3-(trifluoromethoxy)biphenyl-4-ylamino)nicotinic acid, meglumine salt] | 0.478 mg/mL | slightly hygroscopic | 2.7% | 6.2% | no hysteresis | high stability
COc1cccc(-c2cc(F)c(Nc3ncccc3C(=O)O)c(F)c2)c1 [Ex. 6, 2-[(3,5-difluoro-3′-methoxy-1,1′-biphenyl-4-yl)amino]nicotinic acid, L-arginine salt] |  |  |  |  |  | high stability
COc1cccc(-c2cc(F)c(Nc3ncccc3C(=O)O)c(F)c2)c1 [C1, 2-[(3,5-difluoro-3′-methoxy-1,1′-biphenyl-4-yl)amino]nicotinic acid, reference compound] | 0.004 mg/mL |  |  |  |  | 
COc1cccc(-c2cc(F)c(Nc3ncccc3C(=O)O)c(F)c2)c1 [Ex. 1, 2-[(3,5-difluoro-3′-methoxy-1,1′-biphenyl-4-yl)amino]nicotinic acid, meglumine salt] | 2.810 mg/mL | not hygroscopic |  |  | no hysteresis | high stability
